{"source": "patent US12318393B2", "about": "“Modulators of orphan nuclear receptors for NASH and other metabolic disorders” (Emory University, priority 2018, dated 2025)", "key": {"RORα": {"biological_target": "T1, RORα (Homo sapiens, UniProt P35398)", "T1 construct": "endogenous in cells; host or cells: Huh-7 (human hepatocellular carcinoma cells)", "T1 sequence (P35398 1-523)": "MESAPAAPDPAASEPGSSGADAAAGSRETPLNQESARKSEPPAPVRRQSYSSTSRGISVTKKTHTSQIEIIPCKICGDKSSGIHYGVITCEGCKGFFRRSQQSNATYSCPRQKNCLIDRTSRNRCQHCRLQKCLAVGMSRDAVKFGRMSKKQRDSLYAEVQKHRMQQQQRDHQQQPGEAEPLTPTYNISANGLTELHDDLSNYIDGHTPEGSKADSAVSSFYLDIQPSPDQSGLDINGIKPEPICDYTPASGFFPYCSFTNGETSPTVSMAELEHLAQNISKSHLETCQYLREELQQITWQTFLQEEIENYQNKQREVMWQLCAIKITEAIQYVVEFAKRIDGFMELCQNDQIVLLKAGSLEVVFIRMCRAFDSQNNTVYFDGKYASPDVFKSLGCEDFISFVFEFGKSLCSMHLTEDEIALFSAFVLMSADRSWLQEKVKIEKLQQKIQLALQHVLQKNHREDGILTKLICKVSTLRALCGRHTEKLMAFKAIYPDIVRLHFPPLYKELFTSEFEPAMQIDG", "test": "RORα activity by luciferase reporter (miR-122 promoter with WT or mutated RORE) in Huh-7 cells", "assay_type": "cell-based", "details": "24 hours of treatment", "experimental": "Huh-7 cells were transfected with a luciferase reporter plasmid containing the miR-122 promoter (extends to −900 from the transcription start site) with intact wild-type (WT) RORα response element (RORE) or mutated RORE (mut). The cells were treated with Compound 1 one day (24 hours) post-transfection at the indicated concentrations. Luciferase expression was measured after 24 hours of treatment and normalized to Renilla Luciferase activity expressed from a co-transfected pRL plasmid. The pRL Vector, which provides constitutive expression of Renilla luciferase, was used in combination with a firefly luciferase vector to co-transfect cells. […]\nLuciferase assay. […] Firefly and Renilla luciferase activity was assessed using the Dual Luciferase Reporter Assay system (Promega). Readings were taken in triplicates on a Mithras LB 940 Luminometer (Berthold Technologies). […]\nFollowing transfections, the cells were lysed with passive lysis buffer (Cat #E1941; Promega), shaking for 20 min at RT and transferred into appropriate 96-well plate. Firefly and Renilla luciferase activity was assessed using the Dual Luciferase Reporter Assay system (Cat #E1910; Promega) on a luminometer Mithras 2000 (Centro XZ, LB960, Berthold Technologies, Bad Wildbad, Germany). […] Readings were taken in triplicate."}, "HuH7 cell": {"test_system": "HuH7 cell", "test": "LDH release from HuH7 cells", "assay_type": "cell-based, human", "details": "HuH7, 16 h exposure, data not shown"}, "[1]": {"test_system": "C57BL/6 mice fed with high fat diet (HFD)", "test": "HFD-fed C57BL/6 mouse model of NASH, Compound 1 15 mg/kg", "assay_type": "in vivo", "experimental": "To determine the liver and muscle lipid content, muscle and liver tissues (40-80 mg) were homogenized in 0.5 ml of chloroform: Tris solution (v/v, 1:1), the homogenate was transferred to 1 ml of chloroform:methanol solution (v/v, 2:1) centrifuged at 3000 g (at −2° C.) for 10 min (Heraeus Megafuge 16R centrifuge). The organic phase was mixed with 5% Triton X100 in chloroform, dried and re-dissolved in water. After lipid extraction, triglyceride (TG) concentration in samples was measured with Triglyceride Quantification Kit (BioVision), according to the manufactures instructions. Plasma Free fatty acids and β-hydroxybutyrate were determined utilizing commercial colorimetric kits (BioVision) directly from plasma samples.\nMale C57BL/6J mice, 7 to 8 weeks old, were housed randomly in standard cages and were fed a HFD, or atherogenic diet (consisting 1% Chol and 0.5% cholic acid, see also Table 3). All mice had free access to water during the experimental period. During the feeding period body weight was monitored every 3 days. In the HFD experiment, after 4 or 6 weeks, the resultant obese mice were treated with antagomiR-122 ([…] once a week for 3 weeks), or i.p. injected with Compound 1 (RORα agonist, 7.5 mg/kg twice a week for 3 weeks; or 15 mg/kg 3 times a week for 3 weeks). The obese control (HFD) group was administered only saline with DMSO and antagomiR-control. After 3 weeks of treatment mice were sacrificed and livers were taken for RNA-seq analysis. Livers, white adipose, and skeletal muscle tissues were frozen in liquid nitrogen or in optimum cutting temperature embedded frozen blocks, for further RNA and histologic analysis. In the atherogenic diet experiment mice were treated with 15 mg/kg Compound 1 after 3 weeks with the diet. After 3.5 weeks of treatment, mice were sacrificed, and the livers were frozen in liquid nitrogen or in optimum cutting temperature embedded frozen blocks. Plasma was collected from atherogenic diet-fed mice and saved in −20° C. for ALT and AST analysis using the Reflotron® Analyzer and test-strips (Roche).\nExperimental design: C57BL/6 mice fed for 6 weeks with high fat diet (HFD) were injected with 15 mg/kg Compound 1 (or saline+DMSO) 3 times a week for 3 weeks (n=6).\nExperimental design: C57BL/6 mice fed for 6 weeks with HFD were injected with 15 mg/kg Compound 1 (or saline+DMSO) 3 times a week for 3 weeks (n=6)."}, "[2]": {"details": "15 mg/kg 3 times a week for 3 weeks"}}, "data": [{"smiles": "O=C1Nc2cc(C(=O)N3CCC(Cc4ccccc4)CC3)ccc2Nc2ccccc21", "note": "[Compound 1]", "values": [{"measurement": "luciferase expression, mutated RORE", "setting": "RORα; Huh-7, miR-122 promoter reporter with mutated RORE", "value": "negates activity"}, {"measurement": "luciferase expression, WT RORE", "setting": "RORα; Huh-7, miR-122 promoter reporter with wild-type RORE", "value": "dose-dependent increase"}, {"measurement": "toxicity to the cells as measured by LDH release", "setting": "HuH7 cell", "value": "no apparent toxicity"}, {"measurement": "body weight at end of experiment", "setting": "[1]; [2]", "value": "significantly reduced"}, {"measurement": "decrease of (liver) triglyceride levels compared to untreated HFD mice", "setting": "[1]; [2]", "value": 5, "unit": "fold"}, {"measurement": "expression and secretion of miR-122 and precursors in plasma and liver", "setting": "[1]; [2]", "value": "induced"}, {"measurement": "hepatic lipid droplets", "setting": "[1]; [2]", "value": "reduced"}, {"measurement": "liver/body weight ratio, treated vs untreated group", "setting": "[1]; [2]", "value": "decrease"}, {"measurement": "expression of RORα-regulated genes FGF21 and Gpase6", "setting": "[1]; 15 mg/kg 3 times a week for 3 weeks, liver", "value": "significantly induced"}, {"measurement": "WAT inflammation", "setting": "[1]; mice with established NASH on HFD", "value": "reducing"}]}]}
